Assay results as given in US5804589A, “Use of N-cyclohexyl benzamides for treating bowel disorders” (Laboratoires Jacques Logeais, priority 1995, dated 1998).
“And” between values parts separate entries of the source, which are not always exact repeats. Equal entries are not always repeated. “Also recorded” adds a separate entry of the source. Blank lines part the entries; values can stand above or below the molecule they belong to.

Key:
[1] = Visceral sensitivity: abdominal contractures produced by rectal distension after acetic acid irritation; type: in vivo; conditions: rat, 10 min distension, mean of five rats, placebo 23.8 ± 1.6, * p < 0.05 vs placebo
Excerpt: The first model consists in observing, in the rat, the abdominal contractures produced by a rectal distension applied to a mucous membrane which has been irritated beforehand. The number of contractures is proportional to the intensity of the pain experienced. A similar model has been described in Neurogastroenterol. and Mot. (1994), 6, 140, where it is shown that the products which decrease the perception of pain in man decrease the number of contractures observed in the rat.
Male Sprague-Dawley rats weighing 180 g are deprived of food for 12 hours. Under slight fluothane anaesthesia, an intrarectal probe is introduced (5 cm from the anus) and 1.5 ml of 1% dilute acetic acid are injected. The acid immediately flows out via the anus. This rapid contact of the acid makes it possible to irritate the mucous membrane (model for rectal colitis). 1 h 30 after irritation, a small latex balloon (diameter when empty 2 mm, length 1 cm), mounted on a polyurethane catheter (int. diameter 1 mm), is introduced into the rectum (5 cm from the anus) under slight fluothane anaesthesia. The catheter is attached to the base of the tail with adhesive tape and protected by a glass tube. The test product is administered by force feeding and the rat is then introduced into a crystallizing dish covered with a grid. The free ends of the tube and of the catheter are passed through the grid in order to carry out the dilations.
A distension is carried out 2 h 30 after irritating the rectum. The small balloon is dilated with 1.5 ml of distilled water (intracolic pressure equal to 60 mm Hg on average). Dilation is maintained for 10 minutes, during which the abdominal contractures are counted. The small balloon is then deflated by sucking off the distilled water.
They are expressed by the mean number of contractures observed with respect to five rats for the 10 minutes during which they are subjected to a distension.

[2] = Ulcerative colitis induced by intracolic trinitrobenzenesulphonic acid (TNB): weight, macroscopic and histological analysis of colon; type: in vivo, rat; conditions: for Mean weight of the animals: in g
Excerpt: A model for ulcerative colitis induced in the rat by an intracolic instillation of trinitrobenzenesulphonic acid has already been described, for example in Gut (1992), 33, 1498-1503.
The beneficial effect of a treatment on the development of this colitis can be evaluated, on the one hand, by the overall state of health of the animal, represented for example by the change in weight, and, on the other hand, by a histological study of the colon at the end of the experiment.
Male Sprague-Dawley rats (140-150 g), deprived of food since the previous day, are subjected, under general anaesthesia (isoflurane), to irritation of the mucous membrane of the distal colon (7 cm from the anus) with 1 ml of a 50 mg/ml aqueous trinitrobenzenesulphonic acid (TNB) solution. On the following day, the rats are randomized in two equal-sized groups (n=7) which then receive the treatment (placebo or product) by forcefeeding, mornings and evenings. The products are administered at 1 mg/kg p.o. twice daily.
The treatment is administered for the ten days which follow irritation of the colon. The animals are weighed every morning from D5 to D10. The animals are deprived of food on D9 and humanely killed on D10. The colons are removed and macroscopically and then histologically examined.
The macroscopic appearance of the colons was graded as follows:
Sections of the colon are fixed with formaldehyde and enclosed in paraffin blocks. 5 μm sections are prepared, stained with haemalum-eosin and evaluated by optical microscopy according to the following gradings:
The colon was divided into three mucous, submucous and muscular layers and each layer was graded according to the preceding criteria.
The sum of the gradings attributed to each substructure defines, per animal, an index which takes into account both the afflux of the inflammatory cells and the architectural distortion.

[3] = target: T1, 5-HT3 receptors (Mus musculus, UniProt P23979); assay: Affinity for 5-HT3 receptors, membrane preparations of NG 108-15 cells, tritiated BRL 43694 as ligand; type: binding; conditions: NG 108-15 cell membranes
T1 sequence (P23979 24-489): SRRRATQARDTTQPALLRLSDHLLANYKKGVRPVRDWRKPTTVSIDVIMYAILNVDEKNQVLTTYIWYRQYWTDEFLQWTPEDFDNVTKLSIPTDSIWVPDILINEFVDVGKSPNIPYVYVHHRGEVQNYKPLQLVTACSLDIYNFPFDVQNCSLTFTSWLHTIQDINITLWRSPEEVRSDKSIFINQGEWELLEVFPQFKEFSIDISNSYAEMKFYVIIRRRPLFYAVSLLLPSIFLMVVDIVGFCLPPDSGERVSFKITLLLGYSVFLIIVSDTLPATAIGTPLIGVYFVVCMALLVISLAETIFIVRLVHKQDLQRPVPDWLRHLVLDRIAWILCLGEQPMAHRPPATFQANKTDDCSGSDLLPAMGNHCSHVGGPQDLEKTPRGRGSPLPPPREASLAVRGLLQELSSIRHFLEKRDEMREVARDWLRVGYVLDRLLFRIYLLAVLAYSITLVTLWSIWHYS
Experimental: The affinity of the compounds for 5-HT3 receptors was measured according to the method described in Bioch. Pharmacol. (1990), 40, (7), 1541-1550, by using membrane preparations of NG 108-15 cells and tritiated BRL 43694 as specific ligand.

[4] = target: T2, 5-HT3 receptors (Rattus norvegicus, UniProt P35563); assay: Bezold-Jarisch reflex: inhibition of bradycardia induced by serotonin (5-HT3 antagonist activity in vivo); conditions: iv; read-out: IC50 for antagonism of serotonin-induced bradycardia
T2 construct: from tissue; host or cells: whole animal (endogenous receptor)
T2 sequence (P35563 24-483): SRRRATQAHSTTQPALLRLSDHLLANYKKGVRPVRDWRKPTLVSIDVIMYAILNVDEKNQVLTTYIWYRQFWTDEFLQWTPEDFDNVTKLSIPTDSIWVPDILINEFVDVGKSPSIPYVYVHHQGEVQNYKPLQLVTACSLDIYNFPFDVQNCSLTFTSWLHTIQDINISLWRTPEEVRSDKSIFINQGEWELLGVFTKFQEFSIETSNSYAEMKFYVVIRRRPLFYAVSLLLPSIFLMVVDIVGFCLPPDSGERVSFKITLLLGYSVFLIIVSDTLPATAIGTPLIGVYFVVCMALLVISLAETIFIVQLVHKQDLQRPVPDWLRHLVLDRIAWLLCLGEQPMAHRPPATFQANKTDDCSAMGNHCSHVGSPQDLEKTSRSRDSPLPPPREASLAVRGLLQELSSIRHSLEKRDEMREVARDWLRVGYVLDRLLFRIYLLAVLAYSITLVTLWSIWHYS
Experimental: The 5-HT3 antagonist activity of products was evaluated in vivo by measuring their property of inhibiting a bradycardia induced by serotonin, according to the method described in J. Pharm. & Exp. Therap. (1989), 248, 197-201.

Compound: COc1cc(N)c(Cl)cc1C(=O)N[C@@H]1CCCC[C@@H]1CN1CCC(C)(C)CC1 (relative stereo) [Compound 4]
No. of contractures ± standard deviation ([1]; 0.3 mg/kg p.o.): 10.6 ± 4.2

Compound: CC1CCN(C[C@H]2CCCC[C@@H]2NC(=O)c2cc(Cl)c(N)cc2OCC2CC2)CC1 [Compound 9]
No. of contractures ± standard deviation ([1]; 0.3 mg/kg p.o.): 6.3 ± 3.5

Compound: CC1CCN(C[C@H]2CCCC[C@H]2NC(=O)c2cc(Cl)c(N)cc2OCC2CC2)CC1 [Compound 6]
change in weight versus placebo ([2]; 1 mg/kg p.o. twice daily, TNB colitis): significantly improved change in weight
Mean weight of the animals ([2]; 5 days after treatment with TNB, 1 mg/kg p.o. twice daily, placebo 130 ± 8): 153 ± 15
Mean weight of the animals ([2]; 6 days after treatment with TNB, 1 mg/kg p.o. twice daily, placebo 139 ± 18, * p < 0.05): 177 ± 23
Mean weight of the animals ([2]; 7 days after treatment with TNB, 1 mg/kg p.o. twice daily, placebo 142 ± 20, * p < 0.05): 186 ± 27
Mean weight of the animals ([2]; 8 days after treatment with TNB, 1 mg/kg p.o. twice daily, placebo 147 ± 23, * p < 0.05): 194 ± 34
Mean weight of the animals ([2]; 9 days after treatment with TNB, 1 mg/kg p.o. twice daily, placebo 158 ± 30, * p < 0.05): 206 ± 39
Index (histological; sum of gradings of mucous, submucous and muscular layers per animal) ([2]; D10, 1 mg/kg p.o. twice daily, each index value shared by the number of animals in the column beside it): 11 and 3 and 1 and 0
Number of animals at macroscopic colon Stage 0 ([2]; Stage 0: no trace of irritation, D10, 1 mg/kg p.o. twice daily, placebo 0): 0
Number of animals at macroscopic colon Stage 1 ([2]; Stage 1: slightly vasodilated mucous membrane, D10, placebo 0): 1
Number of animals at macroscopic colon Stage 2 ([2]; Stage 2: vasodilated mucous membrane and adhesions, D10, placebo 0): 4
Number of animals at macroscopic colon Stage 3 ([2]; Stage 3: haemorrhagic and sclerotic mucous membrane and adhesions, D10, placebo 3): 2
Number of animals at macroscopic colon Stage 4 ([2]; Stage 4: ulcerated and haemorrhagic mucous membrane and adhesions, D10, placebo 3): 0
seriousness of the macroscopic colon lesions versus placebo ([2]; chi-squared test, Stages 1 and 2 vs Stages 3 and 4): seriousness of the lesions is significantly greater with the placebo than with Compound 6; also recorded: lesional appearance of the colon is less serious
inflammatory state of the colon (histology) versus placebo ([2]; chi-squared test, indices 0 to 5 vs 6 to 12): inflammatory state is significantly more serious treated with the placebo than treated with Compound 6; also recorded: decrease in the afflux of the inflammatory cells
size of the class combining histological indices 0 to 5 ([2]; number of animals, placebo 0): 5
size of the class of macroscopic Stages 1 and 2 ([2]; number of animals, placebo 0): 5
size of the class combining histological indices 6 to 12 ([2]; number of animals, placebo 6): 2
size of the class of macroscopic Stages 3 and 4 ([2]; number of animals, placebo 6): 2
No. of contractures ± standard deviation ([1]; 0.1 mg/kg p.o.): 3.3 ± 1.9
No. of contractures ± standard deviation ([1]; 0.3 mg/kg p.o.): 7.3 ± 2.6
No. of contractures ± standard deviation ([1]; 1 mg/kg p.o.): 9.4

Compound: CC1CCN(C[C@H]2CCCC[C@H]2NC(=O)c2cc(Cl)c(N)cc2OC(C)C)CC1 (relative stereo) [Compound 7]
No. of contractures ± standard deviation ([1]; 0.3 mg/kg p.o.): 7.6 ± 0.5

Compound: CC1CCN(C[C@H]2CCCC[C@H]2NC(=O)c2cc(Cl)c(N)cc2OC2CCCC2)CC1 [Compound 8]
No. of contractures ± standard deviation ([1]; 0.3 mg/kg p.o.): 9.2 ± 1.3

Compound: COc1cc(N)c(Cl)cc1C(=O)N[C@@H]1CCCC[C@@H]1CN1CCC(C(C)(C)C)CC1 (relative stereo) [Compound 5]
No. of contractures ± standard deviation ([1]; 0.3 mg/kg p.o.): 10.6 ± 3.8

Compound: COc1cc(N)c(Cl)cc1C(=O)N[C@@H]1CCCC[C@@H]1CN1CCC(CO)CC1 (relative stereo) [Compound 3]
No. of contractures ± standard deviation ([1]; 0.3 mg/kg p.o.): 13.2 ± 2.4

Compound: COc1cc(N)c(Cl)cc1C(=O)N[C@@H]1CCCC[C@@H]1CN1CCC(C)CC1 [Compound 1]
No. of contractures ± standard deviation ([1]; 0.3 mg/kg p.o.): 3.4 ± 2.1

Ki [3]: 16 nM
ED50 [4]: ~3 µg/kg
Compound: Cc1nccn1CC1CCc2c(c3ccccc3n2C)C1=O (stereo not shown) [ondansetron]

Compound: COc1cc(N)c(Cl)cc1C(=O)N[C@@H]1CCCC[C@@H]1CN1CCC(O)CC1 (relative stereo) [Compound 2]
No. of contractures ± standard deviation ([1]; 0.3 mg/kg p.o.): 9.2 ± 5.3
